# In US20170283834A1, “Processes for Producing A Fermentation Product Using A Fermenting Organism” (Novozymes A/S, priority 2014, published 2017):
# “And” between values parts separate entries of the source, which are not always exact repeats. Equal values may be shown once.
# Experiments:
# Ethanol Red™ = experiment: Addition of benzoate, propionate and formate to ethanol fermentations (SSF of corn mash); format: cell-based, Saccharomyces cerevisiae; settings: for Glycerol pH 3.8 (w/v %) / Glycerol pH 5 (w/v %) / ETOH pH 3.8 (w/v %) / ETOH pH 5 (w/v %) / % Boost over no added acid: 54 hours; for % Boost over no added acid: ethanol; for % Change from no added acid: glycerol
# Method: Industrially prepared corn mash was obtained from Lincolnland (Liquozyme™ SODS liquefaction).
# After 15 minutes, the flasks were swirled, but no other agitation took place.
# The pH after liquefaction was 4.9 and was adjusted to various pHs for SSF. […] Glucoamylase SA (“GSA”)/Cellulase VD (“CVD”) enzyme blend was dosed to each tube of mash at 110 μg EP GSA/gDS and 30 μg EP CVD/gDS. […] Benzoic acid was added in the range of 0-0.8 mM. Propionic and Formic acid were added in the range of 0-30 mM. All acid additions were done prior to inoculation (i.e., before exponential growth).
# Each tube was processed for HPLC analysis by deactivation with 150 μL of 40% v/v H2SO4, vortexing, centrifuging at 1460×g for 10 minutes, and filtering through a 0.45 μm Whatman PP filter. All samples were processed without further dilution.
# zein = experiment: Relative activity assay of protease variants (zein micro titer plate); format: biochemical
# In short: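 Yeast culture supernatants (3 days, 28 °C) incubated over 4 h or overnight on zein-agar plates (pH 4.5 acetate, 0.25 mM ZnSO4) at two temperatures. Zein turbidity read at A630; higher/lower-temperature activity ratio gives relative thermoactivity.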
# [1] = acid Concentration 0.2 (mM), pH 3.8
# [2] = acid Concentration 0.2 (mM), pH 5
# [3] = acid Concentration 0.5 (mM), pH 3.8
# [4] = acid Concentration 0.5 (mM), pH 5
# [5] = acid Concentration 0.8 (mM), pH 3.8
# [6] = acid Concentration 0.8 (mM), pH 5
# [7] = acid Concentration 10 (mM), pH 3.8
# [8] = acid Concentration 10 (mM), pH 5
# [9] = acid Concentration 20 (mM), pH 3.8
# [10] = acid Concentration 20 (mM), pH 5
# [11] = acid Concentration 30 (mM), pH 3.8
# [12] = acid Concentration 30 (mM), pH 5
molecule,measurement,setting,value
"O=C(O)c1ccccc1 [Benzoic Acid, benzoic acid]",effect of acid addition on fermentation performance,Ethanol Red™,increases fermentation performance
same,Glycerol pH 3.8 (w/v %),"Ethanol Red™; Concentration 0.2 mM, pH 3.8",1.159 w/v %
same,Glycerol pH 5 (w/v %),"Ethanol Red™; Concentration 0.2 mM, pH 5",1.160 w/v %
same,Glycerol pH 3.8 (w/v %),"Ethanol Red™; Concentration 0.5 mM, pH 3.8",1.091 w/v %
same,Glycerol pH 5 (w/v %),"Ethanol Red™; Concentration 0.5 mM, pH 5",1.127 w/v %
same,Glycerol pH 3.8 (w/v %),"Ethanol Red™; Concentration 0.8 mM, pH 3.8",1.041 w/v %
same,Glycerol pH 5 (w/v %),"Ethanol Red™; Concentration 0.8 mM, pH 5",1.093 w/v %
same,ETOH pH 3.8 (w/v %),Ethanol Red™; [1],13.73 w/v %
same,ETOH pH 5 (w/v %),Ethanol Red™; [2],13.01 w/v %
same,ETOH pH 3.8 (w/v %),Ethanol Red™; [3],13.6785 w/v %
same,ETOH pH 5 (w/v %),Ethanol Red™; [4],13.23 w/v %
same,ETOH pH 3.8 (w/v %),Ethanol Red™; [5],13.35 w/v %
same,ETOH pH 5 (w/v %),Ethanol Red™; [6],13.39 w/v %
same,% Boost over no added acid,Ethanol Red™; [1],2.70%
same,% Boost over no added acid,Ethanol Red™; [2],0.27%
same,% Boost over no added acid,Ethanol Red™; [3],2.33%
same,% Boost over no added acid,Ethanol Red™; [4],1.96%
same,% Boost over no added acid,Ethanol Red™; [5],−0.12%
same,% Boost over no added acid,Ethanol Red™; [6],3.20%
same,% Change from no added acid,"Ethanol Red™; Concentration 0.2 mM, pH 3.8",−11.47%
same,% Change from no added acid,"Ethanol Red™; Concentration 0.2 mM, pH 5",−13.60%
same,% Change from no added acid,"Ethanol Red™; Concentration 0.5 mM, pH 3.8",−16.65%
same,% Change from no added acid,"Ethanol Red™; Concentration 0.5 mM, pH 5",−16.08%
same,% Change from no added acid,"Ethanol Red™; Concentration 0.8 mM, pH 3.8",−20.45%
same,% Change from no added acid,"Ethanol Red™; Concentration 0.8 mM, pH 5",−18.58%
"O=CO [Formic Acid, formic acid]",effect of acid addition on fermentation performance,Ethanol Red™,boost
same,Glycerol pH 3.8 (w/v %),"Ethanol Red™; Concentration 10 mM, pH 3.8",1.078 w/v %
same,Glycerol pH 5 (w/v %),"Ethanol Red™; Concentration 10 mM, pH 5",1.175 w/v %
same,Glycerol pH 3.8 (w/v %),"Ethanol Red™; Concentration 20 mM, pH 3.8",1.070 w/v %
same,Glycerol pH 5 (w/v %),"Ethanol Red™; Concentration 20 mM, pH 5",1.117 w/v %
same,Glycerol pH 3.8 (w/v %),"Ethanol Red™; Concentration 30 mM, pH 3.8",0.966 w/v %
same,Glycerol pH 5 (w/v %),"Ethanol Red™; Concentration 30 mM, pH 5",1.111 w/v %
same,ETOH pH 3.8 (w/v %),Ethanol Red™; [7],13.69 w/v %
same,ETOH pH 5 (w/v %),Ethanol Red™; [8],13.1 w/v %
same,ETOH pH 3.8 (w/v %),Ethanol Red™; [9],13.41 w/v %
same,ETOH pH 5 (w/v %),Ethanol Red™; [10],13.22 w/v %
same,ETOH pH 3.8 (w/v %),Ethanol Red™; [11],6.458 w/v %
same,ETOH pH 5 (w/v %),Ethanol Red™; [12],13.2 w/v %
same,% Boost over no added acid,Ethanol Red™; [7],2.45%
same,% Boost over no added acid,Ethanol Red™; [8],0.94%
same,% Boost over no added acid,Ethanol Red™; [9],0.31%
same,% Boost over no added acid,Ethanol Red™; [10],1.84%
same,% Boost over no added acid,Ethanol Red™; [11],−51.69%
same,% Boost over no added acid,Ethanol Red™; [12],1.70%
same,% Change from no added acid,"Ethanol Red™; Concentration 10 mM, pH 3.8",−17.68%
same,% Change from no added acid,"Ethanol Red™; Concentration 10 mM, pH 5",−12.49%
same,% Change from no added acid,"Ethanol Red™; Concentration 20 mM, pH 3.8",−18.24%
same,% Change from no added acid,"Ethanol Red™; Concentration 20 mM, pH 5",−16.81%
same,% Change from no added acid,"Ethanol Red™; Concentration 30 mM, pH 3.8",−26.19%
same,% Change from no added acid,"Ethanol Red™; Concentration 30 mM, pH 5",−17.26%
"CCC(=O)O [Propionic Acid, propionic acid]",Glycerol pH 3.8 (w/v %),"Ethanol Red™; Concentration 10 mM, pH 3.8",0.985 w/v %
same,Glycerol pH 5 (w/v %),"Ethanol Red™; Concentration 10 mM, pH 5",1.017 w/v %
same,Glycerol pH 3.8 (w/v %),"Ethanol Red™; Concentration 20 mM, pH 3.8",0.896 w/v %
same,Glycerol pH 5 (w/v %),"Ethanol Red™; Concentration 20 mM, pH 5",0.927 w/v %
same,Glycerol pH 3.8 (w/v %),"Ethanol Red™; Concentration 30 mM, pH 3.8",0.654 w/v %
same,Glycerol pH 5 (w/v %),"Ethanol Red™; Concentration 30 mM, pH 5",0.874 w/v %
same,ETOH pH 3.8 (w/v %),Ethanol Red™; [7],13.2 w/v %
same,ETOH pH 5 (w/v %),Ethanol Red™; [8],13.26 w/v %
same,ETOH pH 3.8 (w/v %),Ethanol Red™; [9],11.67 w/v %
same,ETOH pH 5 (w/v %),Ethanol Red™; [10],12.87 w/v %
same,ETOH pH 3.8 (w/v %),Ethanol Red™; [11],3.064 w/v %
same,ETOH pH 5 (w/v %),Ethanol Red™; [12],11.8064 w/v %
same,% Boost over no added acid,Ethanol Red™; [7],−1.27%
same,% Boost over no added acid,Ethanol Red™; [8],2.2% and 2.21%
same,% Boost over no added acid,Ethanol Red™; [9],−12.7%
same,% Boost over no added acid,Ethanol Red™; [10],−0.84%
same,% Boost over no added acid,Ethanol Red™; [11],−77.08%
same,% Boost over no added acid,Ethanol Red™; [12],−9.03%
same,% Change from no added acid,"Ethanol Red™; Concentration 10 mM, pH 3.8",−24.78%
same,% Change from no added acid,"Ethanol Red™; Concentration 10 mM, pH 5",−24.26%
same,% Change from no added acid,"Ethanol Red™; Concentration 20 mM, pH 3.8",−31.55%
same,% Change from no added acid,"Ethanol Red™; Concentration 20 mM, pH 5",−30.95%
same,% Change from no added acid,"Ethanol Red™; Concentration 30 mM, pH 3.8",−50.02%
same,% Change from no added acid,"Ethanol Red™; Concentration 30 mM, pH 5",−34.94%
same,effect on ethanol production at pH 3.8,Ethanol Red™; pH 3.8,negative effect
"JTP211: protease variant of SEQ ID NO: 3: A27K D79L Y82F D104P A112P A126V D142L (protein, listed as Thermoascus aurantiacus) MRLVASLTALVALSVPVFPAAVNVKRASSYLEITLSQVSNTLIKAVVQNTGSDELSFVHLNFFKDPAPVKKVSVYRDGSEVQFEGILSRYKSTGLSRDAFTYLAPGESVEDVFDIASTYDLTSGGPVTIRTEGVVPYATANSTDIAGYISYSSNVLTIDVDGAAAATVSKAITPLDRRTRISSCSGSRQSALTTALRNAASLANKAADAAQSGSASKFSEYFKTTSSSTRQTVAARLRAVAREASSSSSGATTYYCLDPFGYCSSNVLAYTLPSYNIIANCPIFYTYLPPLTSTCHAQDQATTVLHEFTHAPGVYSPGTLDLAYGYQAAMGLSSSQAVMNADTYALYANAIYLGC",Relative activity 75° C./70° C.,"zein; Table 5, lower part",94%
same,Relative activity 80° C./70° C.,"zein; Table 5, lower part",44%
"JTP213: protease variant of SEQ ID NO: 3: A27K Y82F D104P A112P A126V D142L (protein, listed as Thermoascus aurantiacus) MRLVASLTALVALSVPVFPAAVNVKRASSYLEITLSQVSNTLIKAVVQNTGSDELSFVHLNFFKDPAPVKKVSVYRDGSEVQFEGILSRYKSTGLSRDAFTYLAPGESVEDVFDIASTYDLTSGGPVTIRTEGVVPYATANSTDIAGYISYSSNVLTIDVDGAAAATVSKAITPLDRRTRISSCSGSRQSALTTALRNAASLANKAADAAQSGSASKFSEYFKTTSSSTRQTVAARLRAVAREASSSSSGATTYYCDDPFGYCSSNVLAYTLPSYNIIANCPIFYTYLPPLTSTCHAQDQATTVLHEFTHAPGVYSPGTLDLAYGYQAAMGLSSSQAVMNADTYALYANAIYLGC",Relative activity 75° C./70° C.,"zein; Table 5, lower part",103%
same,Relative activity 80° C./70° C.,"zein; Table 5, lower part",37%
"JTP134: protease variant of SEQ ID NO: 3: D79L Y82F S87P A112P D142L (protein, listed as Thermoascus aurantiacus) MRLVASLTALVALSVPVFPAAVNVKRASSYLEITLSQVSNTLIKAVVQNTGSDELSFVHLNFFKDPAPVKKVSVYRDGSEVQFEGILSRYKSTGLSRDAFTYLAPGESVEDVFDIASTYDLTSGGPVTIRTEGVVPYATANSTDIAGYISYSSNVLTIDVDGAAAATVSKAITPLDRRTRISSCSGSRQSALTTALRNAASLANAAADAAQSGSASKFSEYFKTTSSSTRQTVAARLRAVAREASSSSSGATTYYCLDPFGYCSPNVLAYTLPSYNIIANCDIFYTYLPPLTSTCHAQDQATTALHEFTHAPGVYSPGTLDLAYGYQAAMGLSSSQAVMNADTYALYANAIYLGC",Relative activity 80° C./70° C.,"zein; Table 5, upper part",40%
